From ChEMBL document CHEMBL5154925, “Design and Optimization of Thienopyrimidine Derivatives as Potent and Selective PI3Kδ Inhibitors for the Treatment of B-Cell Malignancies” (J Med Chem, 2022)

Tested on: Pfeiffer
Assay: Antitumor activity against human Pfeiffer cells xenografted in nude mouse assessed as tumor growth inhibition at 5 mg/kg, ip BID for 21 days and measured twice weekly
Format: functional
Settings: 504 h, time 21 day, read-out: TGI

## CCC(=O)N1CC[C@H](Nc2ncnc3sc(-c4cnc(OC)c(OC)c4)cc23)C1
  inhibition in vivo at 5 mg/kg: 69%
